Assay results taken from patent US20200095241A1, “SUBSTITUTED 1,2,4-THIADIAZOLYLPYRROLONES AND 1,2,4-THIADIAZOLYLHYDANTOINS AND SALTS THEREOF AND USE THEREOF AS HERBICIDES” (Bayer CropScience Aktiengesellschaft, priority 2016, published 2020).

How the values were obtained:
Abutilon theophrasti [1] = assay: Post-emergence herbicidal action; type: in vivo; settings: about 3 weeks after treatment
Description: (§1) Seeds of monocotyledonous and dicotyledonous weeds and crop plants were placed in sandy loam in plastic or wood-fiber pots, covered with soil and cultivated in a greenhouse under controlled growth conditions. 2 to 3 weeks after sowing, the test plants were treated at the one-leaf stage. The compounds of the invention, formulated in the form of wettable powders (WP) or as emulsion concentrates (EC), were then sprayed onto the green parts of the plants as aqueous suspension or emulsion with addition of 0.5% additive at a water application rate of 600 l/ha (converted). After the test plants had been kept in the greenhouse under optimum growth conditions for about 3 weeks, the activity of the preparations was rated visually in comparison to untreated controls. For example, 100% activity=the plants have died, 0% activity=like control plants. Tables A1 to A12 below show the effects of selected compounds of the general formula (I) according to Tables I.1 to I.44 on various harmful plants and an application rate corresponding to 1280 g/ha or 320 g/ha, which were obtained by the experimental procedure mentioned above.

Hordeum murinum = assay: Post-emergence herbicidal action; type: in vivo; settings: 1280 g/ha, about 3 weeks after treatment
Description: as §1

Pharbitis purpurea = assay: Post-emergence herbicidal action; type: in vivo; settings: about 3 weeks after treatment
Description: as §1

Setaria viridis [2] = assay: Post-emergence herbicidal action; type: in vivo; settings: about 3 weeks after treatment
Description: as §1

Stellaria media [3] = assay: Post-emergence herbicidal action; type: in vivo; settings: about 3 weeks after treatment
Description: as §1

Viola tricolor [4] = assay: Post-emergence herbicidal action; type: in vivo; settings: 504 h, about 3 weeks after treatment, read-out: Viola tricolor, herbicidal activity rated visually
Description: as §1

Abutilon theophrasti [5] = assay: Pre-emergence herbicidal action; type: in vivo; settings: 1280 g/ha, after about 3 weeks
From the text: (§2) Seeds of monocotyledonous and dicotyledonous weed plants and crop plants were placed in plastic or organic planting pots and covered with soil. The compounds of the invention, formulated in the form of wettable powders (WP) or as emulsion concentrates (EC), were then applied onto the surface of the covering soil as aqueous suspension or emulsion with addition of 0.5% additive at a water application rate of 600 l/ha (converted). After the treatment, the pots were placed in a greenhouse and kept under good growth conditions for the test plants. After about 3 weeks, the effect of the preparations was scored visually in comparison with untreated controls as percentages. For example, 100% activity=the plants have died, 0% activity=like control plants. Tables B1 to B15 below show the effects of selected compounds of the general formula (I) according to Tables I.1 to I.44 on various harmful plants and an application rate corresponding to 1280 g/ha or 320 g/ha, which were obtained by the experimental procedure mentioned above.

Alopecurus myosuroides = assay: Pre-emergence herbicidal action; type: in vivo; settings: 1280 g/ha, after about 3 weeks
From the text: as §2

Matricaria inodora [6] = assay: Pre-emergence herbicidal action; type: in vivo; settings: after about 3 weeks; for pest or weed control at 1280 g/ha / Matricaria inodora, herbicidal effect scored visually: 1280 g/ha
From the text: as §2

Polygonum convolvulus [7] = assay: Pre-emergence herbicidal action; type: in vivo; settings: 1280 g/ha, after about 3 weeks
From the text: as §2

Setaria viridis [8] = assay: Pre-emergence herbicidal action; type: in vivo; settings: 1280 g/ha, after about 3 weeks; for pest or weed control at 1280 g/ha: Setaria viridis, 504 h, read-out: Setaria viridis, herbicidal effect scored visually
From the text: as §2

Stellaria media [9] = assay: Pre-emergence herbicidal action; type: in vivo; settings: after about 3 weeks
From the text: as §2

Viola tricolor [10] = assay: Pre-emergence herbicidal action; type: in vivo; settings: after about 3 weeks
From the text: as §2

photosystem II (PS II) = biological target: T1, photosystem II (PS II) (Spinacia oleracea, UniProt P69560); assay: Measurement of the PS II activity in thylakoid membranes (DCPIP reduction); type: biochemical; settings: 100 μM test compound, spinach thylakoid membranes, DCPIP 120 μM, 10 min at 22° C. with exposure to light; for inhibition at 100 µM (stock): read-out: Effect (inhibition of PS II activity)
T1 construct: the chloroplasts were osmotically ruptured and the thylakoid membranes were then obtained by centrifugation; from tissue; host or cells: fresh spinach leaves; thylakoid membranes isolated from chloroplasts
Description: Cooled fresh spinach leaves were comminuted and homogenized in 50 mM phosphate buffer, pH 6.8. 10 mM KCl, 0.34 M sucrose (sucrose buffer) (blender, 1 g of plant material/ml). The homogenate was subsequently filtered through 4 layers of Miracloth and the chloroplasts were isolated by centrifugation, i.e. 10 min of centrifugation at 4400×g (4° C.). The sediment was suspended in 25 ml of sucrose buffer and re-centrifuged for 10 min at 4400×g (4° C.). The sediment was then suspended in 40 ml of 50 mM phosphate buffer, pH 6.8, 10 mM KCl, without sucrose. In this step, the chloroplasts were osmotically ruptured and the thylakoid membranes were then obtained by centrifugation (10 min, 4400×g, 4° C.). The membrane sediment was finally suspended in 20 ml of 50 mM phosphate buffer, pH 6.8, 10 mM KCl. Following protein determination and activity determination, the membrane suspension was divided into aliquots and frozen in liquid nitrogen. The aliquots were stored at −80° C. Under these conditions, the photosystem II preparation was storage stable for at least three months. The activity determination of photosystem II (PS II) was then carried out using the following test principle:
The electron transfer from PS II to an artificial electron acceptor, 2,6-dichlorophenolindophenol (DCPIP), was measured with exposure to light. The concentration of the blue oxidized form of DCPIP was determined spectrophotometrically at wavelength λ=595 nm. […] The activity determination was carried out in microtiter plates (96 cavities) in a reaction volume of 200 μl. Here, 155 μl of dilute membrane suspension were initially charged in 50 mM of phosphate buffer, pH 6.8, 10 mM KCl. Depending on the activity of the PS II preparation, the dilution was adjusted such that the measurement of the decrease in absorption (λ=595 nm) was linear for at least 10 min. In each case 5 μl solution of the test compounds of a concentration of 100 μM in DMSO were added to the enzyme suspension; controls contained 5 μl DMSO; the final concentration of DMSO in the reaction batch was thus 2.5% (v/v); this concentration had no adverse effect on the enzymatic activity. On each microtiter plate, a known PS II inhibitor, for example metribuzin, was used as standard, which allowed the quality of the PS II test to be assessed. The reaction was started by addition of 40 μl DCPIP solution (600 μM in distilled water); the final concentration of DCPIP was 120 μM. Measurement of absorption was carried out over a period of 10 min at 22° C. and with exposure to light. Using metribuzin as comparative substance, the results for the efficacy of the compounds of the general formula (I) at 100 μM are stated in the table below using the following classification: ++++ (inhibition≥90%), +++ ([…]≥70%), ++ (70%>inhibition≥50%), + (50%>inhibition≥30%).

Amaranthus retroflexus [11] = assay: Pre-emergence herbicidal action; type: in vivo; settings: 1280 g/ha, after about 3 weeks
From the text: as §2

Lolium rigidum = assay: Pre-emergence herbicidal action; type: in vivo; settings: 1280 g/ha, after about 3 weeks
From the text: as §2

Poa annua = assay: Pre-emergence herbicidal action; type: in vivo; settings: 1280 g/ha, after about 3 weeks
From the text: as §2

Polygonum convolvulus [12] = assay: Post-emergence herbicidal action; type: in vivo; settings: about 3 weeks after treatment
Description: as §1

Matricaria inodora [13] = assay: Post-emergence herbicidal action; type: in vivo; settings: 1280 g/ha, about 3 weeks after treatment
Description: as §1

Amaranthus retroflexus [14] = assay: Post-emergence herbicidal action; type: in vivo; settings: 1280 g/ha, about 3 weeks after treatment
Description: as §1

Veronica persica = assay: Post-emergence herbicidal action; type: in vivo; settings: 1280 g/ha, about 3 weeks after treatment
Description: as §1

[15] = Abutilon theophrasti, 504 h, 1280 g/ha, read-out: Abutilon theophrasti, herbicidal activity rated visually
[16] = Setaria viridis, 504 h, 1280 g/ha, read-out: Setaria viridis, herbicidal activity rated visually
[17] = Stellaria media, 504 h, 1280 g/ha, read-out: Stellaria media, herbicidal activity rated visually
[18] = Tripleurospermum inodorum, 504 h, read-out: Matricaria inodora, herbicidal effect scored visually
[19] = Stellaria media, 504 h, 1280 g/ha, read-out: Stellaria media, herbicidal effect scored visually
[20] = Viola tricolor, 504 h, 1280 g/ha, read-out: Viola tricolor, herbicidal effect scored visually

inhibition at 100 µM (stock) (photosystem II (PS II))	SMILES	pest or weed control at 1280 g/ha (Abutilon theophrasti [1]; [15])	Pharbitis purpurea, herbicidal activity rated visually (Pharbitis purpurea; 1280 g/ha)	pest or weed control at 1280 g/ha (Setaria viridis [2]; [16])	pest or weed control at 1280 g/ha (Stellaria media [3]; [17])	pest or weed control at 1280 g/ha (Viola tricolor [4])	Alopecurus myosuroides, herbicidal effect scored visually (Alopecurus myosuroides)	pest or weed control at 1280 g/ha (Matricaria inodora [6]; [18])	Polygonum convolvulus, herbicidal effect scored visually (Polygonum convolvulus [7])	pest or weed control at 1280 g/ha (Setaria viridis [8])	pest or weed control at 1280 g/ha (Stellaria media [9]; [19])	pest or weed control at 1280 g/ha (Viola tricolor [10]; [20])	Amaranthus retroflexus, herbicidal effect scored visually (Amaranthus retroflexus [11])	Matricaria inodora, herbicidal effect scored visually (Matricaria inodora [6])	Poa annua, herbicidal effect scored visually (Poa annua)	further results
> 90%	CCCc1nsc(N2C(=O)C(C)=C(C)C2O)n1 (stereo not shown) [I.2-4, 3,4-Dimethyl-5-hydroxy-1-[3-(n-propyl)-1,2,4-thiadiazol-5-yl)-1,5-dihydro-2H-pyrrol-2-one]	90%	90%	100%	80%	80%	90%	100%	100%	100%	100%	100%	–	–	–	Hordeum murinum, herbicidal activity rated visually (Hordeum murinum): 80%; Abutilon theophrasti, herbicidal effect scored visually (Abutilon theophrasti [5]): 80%
–	CC1=C(C)C(O)N(c2nc(SCCOC(F)(F)F)ns2)C1=O (stereo not shown) [I.2-338]	–	–	–	–	–	–	–	–	–	–	–	90%	90%	90%	Abutilon theophrasti, herbicidal activity rated visually (Abutilon theophrasti [1]; 320 g/ha): 100%; Stellaria media, herbicidal activity rated visually (Stellaria media [3]; 1280 g/ha): 90%; Lolium rigidum, herbicidal effect scored visually (Lolium rigidum): 90%; Setaria viridis, herbicidal effect scored visually (Setaria viridis [8]): 90%; Stellaria media, herbicidal effect scored visually (Stellaria media [9]; 320 g/ha): 90%; Effect (inhibition of PS II activity) (photosystem II (PS II)): ++++ (inhibition≥90%)
> 90%	COc1nsc(N2C(=O)C(C)=C(C)C2O)n1 (stereo not shown) [I.2-363, 3,4-Dimethyl-5-hydroxy-1-(3-methoxy-1,2,4-thiadiazol-5-yl)-1,5-dihydro-2H-pyrrol-2-one]	–	–	–	–	–	–	–	–	–	–	–	–	–	–	pest or weed control at 320 g/ha (Abutilon theophrasti [1]; Abutilon theophrasti, 504 h, 320 g/ha, read-out: Abutilon theophrasti, herbicidal activity rated visually): 90%; Pharbitis purpurea, herbicidal activity rated visually (Pharbitis purpurea; 320 g/ha): 80%; Polygonum convolvulus, herbicidal activity rated visually (Polygonum convolvulus [12]; 320 g/ha): 100%; pest or weed control at 320 g/ha (Setaria viridis [2]; Setaria viridis, 504 h, 320 g/ha, read-out: Setaria viridis, herbicidal activity rated visually): 100%; pest or weed control at 320 g/ha (Stellaria media [3]; Stellaria media, 504 h, 320 g/ha, read-out: Stellaria media, herbicidal activity rated visually): 90%; pest or weed control at 320 g/ha (Viola tricolor [4]; 320 g/ha): 100%; pest or weed control at 320 g/ha (Matricaria inodora [6]; Tripleurospermum inodorum, 504 h, 320 g/ha, read-out: Matricaria inodora, herbicidal effect scored visually): 90%; pest or weed control at 320 g/ha (Stellaria media [9]; Stellaria media, 504 h, 320 g/ha, read-out: Stellaria media, herbicidal effect scored visually): 100%; pest or weed control at 320 g/ha (Viola tricolor [10]; Viola tricolor, 504 h, 320 g/ha, read-out: Viola tricolor, herbicidal effect scored visually): 80%
–	CC1=C(Cl)C(=O)N(c2nc(C(C)C)ns2)C1O (stereo not shown) [I.3-5, 3-Chloro-4-methyl-5-hydroxy-1-(3-isopropyl-1,2,4-thiadiazol-5-yl)-1,5-dihydro-2H-pyrrol-2-one]	–	–	–	100%	–	–	90%	–	90%	90%	–	–	–	90%	Matricaria inodora, herbicidal activity rated visually (Matricaria inodora [13]): 100%
–	CC1=C(Br)C(=O)N(c2nc(C)ns2)C1O (stereo not shown) [I.5-2]	–	–	–	–	–	80%	–	80%	–	–	–	–	90%	–	Abutilon theophrasti, herbicidal activity rated visually (Abutilon theophrasti [1]; 1280 g/ha): 80%; Setaria viridis, herbicidal activity rated visually (Setaria viridis [2]; 1280 g/ha): 80%; Stellaria media, herbicidal effect scored visually (Stellaria media [9]; 1280 g/ha): 90%; Viola tricolor, herbicidal effect scored visually (Viola tricolor [10]; 1280 g/ha): 90%
70 to 90%	CC(C)c1nsc(N2C(=O)N(C)CC2O)n1 (stereo not shown) [I.13-5, 4-Hydroxy-1-methyl-3-[3-(isopropyl)-1,2,4-thiadiazol-5-yl]imidazolidin-2-one]	100%	90%	100%	100%	100%	–	90%	90%	80%	90%	90%	100%	–	–	Amaranthus retroflexus, herbicidal activity rated visually (Amaranthus retroflexus [14]): 100%; Polygonum convolvulus, herbicidal activity rated visually (Polygonum convolvulus [12]; 1280 g/ha): 90%; Veronica persica, herbicidal activity rated visually (Veronica persica): 100%
